Laboratory results: patent US10071964B2, “Disubstituted piperidines as butyrylcholinesterase inhibitors” (priority 2015, dated 2018)

Assays:
[1] = molecular target: T1, murine acetylcholinesterase (mAChE) (Mus musculus, UniProt P21836); assay: Ellman's method enzyme assay, mAChE inhibition; type: biochemical; conditions: for % inhibition at 10 μM mAChE: 10 μM compound, n.i. = no inhibition
T1 sequence (P21836 32-614): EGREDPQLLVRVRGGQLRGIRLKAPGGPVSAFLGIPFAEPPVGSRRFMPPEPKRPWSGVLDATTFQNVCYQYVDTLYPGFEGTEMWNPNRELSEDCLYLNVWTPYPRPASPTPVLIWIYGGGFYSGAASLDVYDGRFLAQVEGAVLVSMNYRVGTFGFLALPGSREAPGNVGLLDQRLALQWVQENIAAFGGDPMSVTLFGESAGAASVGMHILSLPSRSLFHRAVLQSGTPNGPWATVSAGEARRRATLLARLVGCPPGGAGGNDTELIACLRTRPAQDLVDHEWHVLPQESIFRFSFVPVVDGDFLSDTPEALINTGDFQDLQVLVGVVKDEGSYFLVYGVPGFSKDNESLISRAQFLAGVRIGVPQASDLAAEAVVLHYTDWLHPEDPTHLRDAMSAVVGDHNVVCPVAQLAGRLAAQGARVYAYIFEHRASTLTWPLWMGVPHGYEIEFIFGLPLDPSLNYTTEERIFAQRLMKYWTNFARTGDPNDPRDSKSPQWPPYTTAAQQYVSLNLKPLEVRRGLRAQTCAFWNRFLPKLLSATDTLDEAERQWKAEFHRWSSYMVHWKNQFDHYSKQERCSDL
Text: (§1) Ellman's method was used to evaluate the inhibitory activities of the synthesized compounds against the cholinesterases. […] As a substrate butyrylthiocholine (BTC) and acetylthiocholine (ATC) iodides were used for BChE and AChE, respectively. […] For the reference sample, 1% dimethylsulfoxide (DMSO) replaced the inhibitor's solution.
(§2) Potency of the inhibitor is expressed as a residual activity (RA) of the enzyme at the employed inhibitor's concentration, half maximal inhibitory concentration (IC50 value) and as an inhibition constant (Ki).
(§3) The enzyme reactions were carried out using murine acetylcholinesterase (mAChE) and human recombinant butyrylcholinesterase (huBChE). From the lyophilised powders of both enzymes, the solutions were obtained by dissolution of the powders in 10 mM MES buffer (pH 6.5) to reach the concentration of 4 mg/mL. The concentrated enzyme solution was diluted prior use in 100 mM phosphate buffer (pH 8.0) to reach the activity of the enzyme in the assay of approximately 500 mAu per minute.
(§4) ATCI in BTCI solutions were prepared in 100 mM phosphate buffer (pH 8.0) to reach the final concentration in the assay of 500 μM.
Stock solutions of compounds were prepared in DMSO in a concentration of 10 mM.
(§5) Enzyme solutions were prepared by dilution of the concentrated stocks in the 100 mM phosphate buffer (pH 8.0). […] Enzyme reaction was started with the addition of the substrate. The DMSO concentration in the test solution was always 1%. […] For the determination of blank (b) the phosphate buffer replaced the enzyme solution. Initial velocity of the enzyme reaction (v0) was determined from the linear curve of the enzyme reaction product formation, where each measurement was performed in triplicate. For the initial screening of inhibition ability, […] concentration of the investigated compounds was used. Compounds were pipetted in the corresponding wells to reach the final concentration of 10 μM. Tested compound and the enzyme solution were first preincubated for 300s, followed by the substrate addition, which triggered the enzyme reaction. The initial velocity in presence of the inhibitor was further calculated (vi). The inhibition capability was expressed as residual activity (RA=(vi−b)/(vo−b)).
(§6) IC50 values were determined by plotting the RA versus the concentration of the investigated compound.
(§7) Where X is a common logarithm of the concentration of the inhibitor and Y is the residual activity. For solving the equation Gnuplot software and an in-house python script were used. For the determination of the inhibition constant full progress curves of the product formation in presence and absence of investigated compounds were monitored. The curves were submitted in the ENZO web-application, which allows solving of numerical equations.

[2] = molecular target: human recombinant butyrylcholinesterase (huBChE) (Homo sapiens, UniProt P06276); assay: biochemical; conditions: read-out: IC50 ± STD (μM) huBChE
human recombinant butyrylcholinesterase (huBChE), sequence (P06276 29-602): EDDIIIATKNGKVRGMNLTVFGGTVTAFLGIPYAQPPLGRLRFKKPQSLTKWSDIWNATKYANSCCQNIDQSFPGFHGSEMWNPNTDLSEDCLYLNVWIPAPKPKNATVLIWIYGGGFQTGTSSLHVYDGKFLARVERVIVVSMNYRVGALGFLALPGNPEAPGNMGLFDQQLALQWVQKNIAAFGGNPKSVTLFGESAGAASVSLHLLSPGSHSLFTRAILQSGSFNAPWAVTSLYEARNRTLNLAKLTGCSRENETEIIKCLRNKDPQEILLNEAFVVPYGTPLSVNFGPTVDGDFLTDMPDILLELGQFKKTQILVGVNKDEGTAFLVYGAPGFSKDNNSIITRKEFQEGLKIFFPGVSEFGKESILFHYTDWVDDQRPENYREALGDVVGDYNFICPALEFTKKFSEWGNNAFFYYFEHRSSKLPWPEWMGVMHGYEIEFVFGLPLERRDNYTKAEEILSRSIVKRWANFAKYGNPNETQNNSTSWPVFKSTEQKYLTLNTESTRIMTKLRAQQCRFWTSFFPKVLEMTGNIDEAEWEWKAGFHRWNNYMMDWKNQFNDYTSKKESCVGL
Text: as §1, §2, §3, §4, §5, §6, §7

| Structure (SMILES) | % inhibition at 10 μM mAChE ([1]; Table 2, formula (II)) | IC50 [2] | inhibition at 10 µM ([1]; read-out: % inhibition ± STD at 10 μM inhibitor mAChE, Table 1, formula (I), 10 μM inhibitor) | IC50 ([1]; Table 2, formula (II), substrate ATCI 500 μM, read-out: IC50 ± STD (μM) mAChE) |
| --- | --- | --- | --- | --- |
| COCCN(CC1CCCN(Cc2cccc(F)c2)C1)S(=O)(=O)c1ccc2ccccc2c1 (stereo not drawn) | n.i. | 0.0491 ± 0.0012 µM | – | – |
| COCCN(CC1CCCN(C2Cc3ccccc3C2)C1)S(=O)(=O)c1ccc(OC)cc1 (stereo not drawn) | n.i. | 0.482 ± 0.066 µM | – | – |
| N#Cc1ccc(CN2CCCC(CNS(=O)(=O)c3ccc4ccccc4c3)C2)cc1 (stereo not drawn) | n.i. | 2.09 ± 0.328 µM | – | – |
| COCCCN(CC1CCN(Cc2ccccc2)CC1)S(=O)(=O)c1ccc2ccccc2c1 | n.i. | – | – | – |
| CN(CC1CCCN(Cc2ccccc2)C1)S(=O)(=O)c1ccc2ccccc2c1 (stereo not drawn) | n.i. | – | – | – |
| COCCN(CC1CCCN(C2Cc3ccccc3C2)C1)S(=O)(=O)c1ccc(N)cc1 (stereo not drawn) | n.i. | 0.314 ± 0.036 µM | – | – |
| COCCCN(CC1CCN(C2Cc3ccccc3C2)CC1)S(=O)(=O)c1ccc2ccccc2c1 | n.i. | – | – | – |
| CN(CC1CCCN(Cc2ccc(F)cc2)C1)S(=O)(=O)c1ccc2ccccc2c1 (stereo not drawn) | n.i. | 0.427 ± 0.044 µM | – | – |
| COCCN(CC1CCCN(C2Cc3ccccc3C2)C1)S(=O)(=O)c1cccc(N)c1 (stereo not drawn) | n.i. | – | – | – |
| O=S(=O)(NCC1CCCN(Cc2ccncc2)C1)c1ccc2ccccc2c1 (stereo not drawn) | n.i. | 1.67 ± 0.256 µM | – | – |
| CNC(=O)c1ccccc1S(=O)(=O)N(CCOC)CC1CCCN(C2Cc3ccccc3C2)C1 (stereo not drawn) | n.i. | 3.23 ± 0.492 µM | – | – |
| CCCCN(CC1CCCN(Cc2ccccc2)C1)S(=O)(=O)c1ccc2ccccc2c1 (stereo not drawn) | n.i. | 0.0355 ± 0.0044 µM | – | – |
| O=S(=O)(NCC1CCCN(Cc2ccccc2)C1)c1ccc2ccccc2c1 (stereo not drawn) | n.i. | – | – | – |
| COCCCN(CC1CCCN(Cc2ccccc2)C1)S(=O)(=O)c1ccc2ccc(OCC#N)cc2c1 (stereo not drawn) | n.i. | 0.113 ± 0.008 µM | – | – |
| CCN(CC1CCCN(Cc2ccccc2)C1)S(=O)(=O)c1ccc2ccccc2c1 (stereo not drawn) | n.i. | 0.038 ± 0.0026 µM | – | – |
| COCCN(CC1CCN(Cc2ccccc2)CC1)S(=O)(=O)c1ccc2ccccc2c1 | n.i. | – | – | – |
| Cc1nc(CN2CCCC(CNS(=O)(=O)c3ccc4ccccc4c3)C2)cs1 (stereo not drawn) | 71 ± 3.68% | 0.366 ± 0.031 µM | – | – |
| COCCN(CC1CCCN(Cc2cccc(C#N)c2)C1)S(=O)(=O)c1ccc2ccccc2c1 (stereo not drawn) | n.i. | 0.338 ± 0.008 µM | – | – |
| COCCN(CC1CCCN(C2Cc3ccccc3C2)C1)S(=O)(=O)c1ccc(NC(C)=O)cc1 (stereo not drawn) | n.i. | 0.321 ± 0.035 µM | – | – |
| COCCN(CC1CCCN(C2Cc3ccccc3C2)C1)S(=O)(=O)c1ccccc1 (stereo not drawn) | n.i. | 0.343 ± 0.005 µM | – | – |
| COCCN(CC1CCCN(Cc2ccc(C#N)cc2)C1)S(=O)(=O)c1ccc2ccccc2c1 (stereo not drawn) | n.i. | 1.46 ± 0.115 µM | – | – |

| Structure (SMILES) | % inhibition at 10 μM mAChE ([1]; Table 2, formula (II)) | IC50 [2] | inhibition at 10 µM ([1]; read-out: % inhibition ± STD at 10 μM inhibitor mAChE, Table 1, formula (I), 10 μM inhibitor) | IC50 ([1]; Table 2, formula (II), substrate ATCI 500 μM, read-out: IC50 ± STD (μM) mAChE) |
| --- | --- | --- | --- | --- |
| COCCN(CC1CCCN(Cc2ccccc2)C1)S(=O)(=O)c1cccc2ccccc12 (stereo not drawn) | n.i. | 0.059 ± 0.0054 µM | – | – |
| COCCN(CC1CCCN(C2Cc3ccccc3C2)C1)S(=O)(=O)c1cccc(NC(C)=O)c1 (stereo not drawn) | n.i. | 8.21 ± 0.601 µM | – | – |
| COCCN(CC1CCCN(C2Cc3ccccc3C2)C1)S(=O)(=O)c1ccc(C)cc1 (stereo not drawn) | n.i. | 0.279 ± 0.008 µM | – | – |
| COCCCN(CC1CCCN(Cc2ccccc2)C1)S(=O)(=O)c1ccc2ccccc2c1 (stereo not drawn) | n.i. | – | – | – |
| COCCN(CC1CCCN(C2Cc3ccccc3C2)C1)S(=O)(=O)c1cccc([N+](=O)[O-])c1 (stereo not drawn) | – | 3.61 ± 0.528 µM | – | – |
| COCCN(CC1CCCN(C2Cc3ccccc3C2)C1)S(=O)(=O)c1ccccc1C(=O)OC (stereo not drawn) | n.i. | 0.359 ± 0.018 µM | – | – |
| COCCN(CC1CCCN(Cc2ccccc2)C1)S(=O)(=O)c1ccc2ccccc2c1 (stereo not drawn) | n.i. | – | – | – |
| COCCN(CC1CCCN(Cc2ccc(F)cc2)C1)S(=O)(=O)c1ccc2ccccc2c1 (stereo not drawn) | n.i. | 0.231 ± 0.006 µM | – | – |
| COCCN(CC1CCN(C2Cc3ccccc3C2)CC1)S(=O)(=O)c1ccc2ccccc2c1 | n.i. | – | – | – |
| COCCN(CC1CCCN(Cc2ccccc2)C1)S(=O)(=O)c1ccc2ccc(OC)cc2c1 (stereo not drawn) | n.i. | 0.156 ± 0.033 µM | – | – |
| COCCN(CC1CCCN(Cc2ccc(N(C)C)cc2)C1)S(=O)(=O)c1ccc2ccccc2c1 (stereo not drawn) | n.i. | 0.311 ± 0.022 µM | – | – |
| COCCN(CC1CCCN(C2Cc3ccccc3C2)C1)S(=O)(=O)c1ccc2ccccc2c1 (stereo not drawn) | 72 ± 0.86% | – | – | – |
| Cc1cccc(CN2CCCC(CNS(=O)(=O)c3ccc4ccccc4c3)C2)c1 (stereo not drawn) | 57 ± 3.55% | 0.287 ± 0.022 µM | – | – |
| O=S(=O)(NCC1CCCN(Cc2ccc(F)cc2Cl)C1)c1ccc2ccccc2c1 (stereo not drawn) | 73 ± 3.60% | 0.347 ± 0.06 µM | – | – |
| CN(C)CCN(CC1CCCN(C2Cc3ccccc3C2)C1)C(=O)c1ccc2ccccc2c1 (stereo not drawn) | – | – | 17.4 ± 3.7% | – |
| O=S(=O)(NCC1CCN(Cc2ccccc2)CC1)c1ccc2ccccc2c1 | – | – | – | 1.78 ± 0.085 µM |
| COCCN(CC1CCCN(C2Cc3ccccc3C2)C1)S(=O)(=O)c1ccc(F)cc1 (stereo not drawn) | n.i. | 0.887 ± 0.08 µM | – | – |
| O=S(=O)(NCC1CCCN(Cc2ccc(F)cc2)C1)c1ccc2ccccc2c1 (stereo not drawn) | 75 ± 4.19% | 0.583 ± 0.043 µM | – | – |
| CCCN(CC1CCCN(Cc2ccccc2)C1)S(=O)(=O)c1ccc2ccccc2c1 (stereo not drawn) | n.i. | 0.0428 ± 0.0064 µM | – | – |
| COCCN(CC1CCCN(C2Cc3ccccc3C2)C1)S(=O)(=O)c1ccc([N+](=O)[O-])cc1 (stereo not drawn) | n.i. | 3.47 ± 0.052 µM | – | – |
